Measurements from patent US11098288B2, “D-type amino acid dehydrogenase” (Kureha Corporation, priority 2017, dated 2021).

Columns and labels:
[1] = tested on: Wild type D-type amino acid dehydrogenase derived from T. lipolytica; assay: D-amino acid synthesis activity (amination of 2-oxo acid), wild type enzyme; type: biochemical, Thermosyntropha lipolytica; conditions: 5 mM 2-oxoacid, 200 mM ammonium chloride, glycine buffer pH 9.5, 50° C.; for D-amino acid synthesis activity (specific activity), Wild type, NADH: NADH 0.1 mM; for D-amino acid synthesis activity (specific activity), Wild type, NADPH: NADPH 0.1 mM
Procedure: (§1) The activity of the enzyme was measured by determining a decrease in absorbance at wavelength of 340 nm of NADPH or NADH […] by the catalytic reaction of the enzyme and determining the enzymatic activity by the determined decrease in absorbance as an indicator. […] The absorbance was measured by an ultraviolet-visible spectrophotometer UV-1800 (available from SHIMADZU). […]

[2] = tested on: Five-mutation enzyme (five-mutation D-type amino acid dehydrogenase, SEQ ID NO: 14); assay: D-amino acid synthesis activity (amination of 2-oxo acid), five-mutation enzyme; type: biochemical, Thermosyntropha lipolytica; conditions: 5 mM 2-oxoacid, 200 mM ammonium chloride, glycine buffer pH 9.5, 50° C.; for D-amino acid synthesis activity (specific activity), Five-mutation enzyme, NADH: NADH 0.1 mM; for D-amino acid synthesis activity (specific activity), Five-mutation enzyme, NADPH: NADPH 0.1 mM
Procedure: The PCR reaction solution was prepared so as to contain 0.3 μM of each of the following primers and 50 ng of the above-described template DNA.
After PCR, 2 μL of DpnI was added to the reaction solution and treated at 37° C. for 1 hour, and E. coli DH5α was transformed using the solution after treatment. Transformed cells were coated on an LB agar plate containing antibiotic ampicillin (final concentration 100 mg/L) and cultured at 37° C. for 16 hours. The generated colonies were harvested and cultured in LB liquid medium containing ampicillin overnight. The strains were collected from the culture solution by centrifugation, and five-mutation D-type amino acid dehydrogenase/pET100 was collected according to the manufacturer's protocol using AccuPrep Plasmid Mini Extraction Kit (BIONEER).
as §1

[3] = tested on: Six-mutation enzyme (Asp94Ser, Met154Leu, Val158Gly, Thr173Ile, Arg183Met, His229Asn; SEQ ID NO: 8); assay: D-amino acid synthesis activity (amination of 2-oxo acid), six-mutation enzyme; type: biochemical, Thermosyntropha lipolytica; conditions: 5 mM 2-oxoacid, 200 mM ammonium chloride, glycine buffer pH 9.5, 50° C.; for D-amino acid synthesis activity (specific activity), Six-mutation enzyme, NADH: NADH 0.1 mM; for D-amino acid synthesis activity (specific activity), Six-mutation enzyme, NADPH: NADPH 0.1 mM
Procedure: Using this as a template, the gene of the enzyme was amplified by PCR using “PrimeSTAR Max DNA Polymerase” available from Takara Bio Inc. PCR was performed according to the manufacturer's instructions. The PCR reaction solution was prepared so as to contain 0.3 μM of each of the following primers and 50 ng of the above-described template DNA.
According to the manufacturer's protocol, the purified amplification product was incorporated into a pET100 vector (I available from Invitrogen) of a plasmid for protein expression to construct a six-mutation D-type amino acid dehydrogenase/pET100. The expression vector was constructed so as to incorporate a six-mutation D-type amino acid dehydrogenase gene derived from T. lipolytica downstream of the T7 promoter and […], and upstream of the T7 terminator.
as §1

[4] = biological target: D-type amino acid dehydrogenase derived from T. lipolytica (Thermosyntropha lipolytica, UniProt A0A1M5M5H3); assay: Coenzyme dependence by activity-staining after disc gel electrophoresis; type: biochemical; conditions: 10 mM meso-diaminopimelic acid, 1.25 mM coenzyme, pH 8.0, 50° C., 30 minutes
Procedure: The coenzyme dependence of the enzyme was evaluated by an activity-staining method due to an enzymatic catalytic reaction. More specifically, an appropriate amount of enzyme solution was subjected to disc gel electrophoresis. […] A reaction formula is indicated below. In the following reaction formula, the D-type amino acid dehydrogenase is referred to as “meso-DAPDH”.

[5] = substrate: NC(=O)c1ccc[n+]([C@@H]2O[C@H](COP(=O)([O-])OP(=O)(O)OC[C@H]3O[C@@H](n4cnc5c(N)ncnc54)[C@H](O)[C@@H]3O)[C@@H](O)[C@H]2O)c1; assay: purified protein, by the assay type; type: biochemical, Thermosyntropha lipolytica; conditions: other: meso-diaminopimelic acid as substrate, 50° C., values for meso-diaminopimelic acid determined using NADP^+ as the coenzyme
Procedure: The absorbance was measured by an ultraviolet-visible spectrophotometer UV-1800 (available from SHIMADZU). The specific activity of the enzyme was calculated from the concentration of the enzyme used and enzyme dilution rate using the obtained absorbance change and the following equation.
A turnover number (kcat) as a reaction rate parameter, a Michaelis constant (Km) value, and catalytic efficiency (kcat/Km) were determined with Igor Pro ver. 3.14 (available from WaveMetrics) based on Michaelis-Menten equation after the initial velocities were plotted against different substrates and coenzyme concentrations.

[6] = substrate: N[C@H](CCC[C@H](N)C(=O)O)C(=O)O; assay: purified protein, by the assay type; conditions: other: meso-diaminopimelic acid as substrate, 50° C., values for meso-diaminopimelic acid determined using NADP^+ as the coenzyme

Molecule | D-amino acid synthesis activity (specific activity), Wild type, NADH [1] | D-amino acid synthesis activity (specific activity), Wild type, NADPH [1] | D-amino acid synthesis activity (specific activity), Five-mutation enzyme, NADH [2] | D-amino acid synthesis activity (specific activity), Five-mutation enzyme, NADPH [2] [µmol/min/mg] | D-amino acid synthesis activity (specific activity), Six-mutation enzyme, NADH [3] | D-amino acid synthesis activity (specific activity), Six-mutation enzyme, NADPH [3] [µmol/min/mg] | coenzyme utilization (activity-staining) [4] | Km [5] [mM] | kcat [5] [s⁻¹] | kcat/Km [5] [M⁻¹ s⁻¹] | Km [6] [mM] | kcat [6] [s⁻¹] | kcat/Km [6] [M⁻¹ s⁻¹]
CC(C)C(=O)C(=O)O [2-oxo-3-methylbutanoic acid/D-valine, 2-oxo-3-methylbutanoic acid] | 0.43 ± 0.0026 µmol/min/mg | 0.33 ± 0.0094 µmol/min/mg | 0.18 ± 0.00078 µmol/min/mg | 0.11 ± 0.0034 | 0.18 ± 0.00089 µmol/min/mg | 0.058 ± 0.0027 | – | – | – | – | – | – | –
O=C(O)C(=O)Cc1ccccc1 [2-oxo-3-phenylpropanoic acid] | 0.020 ± 0.0053 µmol/min/mg | No Activity | No Activity | 0.068 ± 0.0039 | No Activity | 0.036 ± 0.0037 | – | – | – | – | – | – | –
CSCCC(=O)C(=O)O [2-oxo-4-(methylthio) butanoic acid] | 0.0033 ± 0.0016 µmol/min/mg | 0.059 ± 0.0065 µmol/min/mg | No Activity | 0.18 ± 0.0022 | No Activity | 0.089 ± 0.0038 | – | – | – | – | – | – | –
CC(C)CC(=O)C(=O)O [2-oxo-4-methylpentanoic acid/D-leucine, 2-oxo-4-methylpentanoic acid] | 0.27 ± 0.0064 µmol/min/mg | 0.061 ± 0.00082 µmol/min/mg | 0.11 ± 0.0027 µmol/min/mg | 0.20 ± 0.0071 | No Activity | 0.11 ± 0.0013 | – | – | – | – | – | – | –
O=C(O)CC(=O)C(=O)O [2-oxobutanedioic acid/D-aspartic acid, 2-oxobutanedioic acid] | 0.43 ± 0.015 µmol/min/mg | 5.7 ± 0.60 µmol/min/mg | 0.14 ± 0.014 µmol/min/mg | 0.60 ± 0.035 | 0.12 ± 0.010 µmol/min/mg | 0.32 ± 0.0082 | – | – | – | – | – | – | –
CCC(=O)C(=O)O [2-oxobutanoic acid/D-2-aminobutyric acid, 2-oxobutanoic acid] | 0.13 ± 0.0041 µmol/min/mg | 2.3 ± 0.030 µmol/min/mg | 0.044 ± 0.0049 µmol/min/mg | 0.13 ± 0.0020 | 0.032 ± 0.0023 µmol/min/mg | 0.077 ± 0.0041 | – | – | – | – | – | – | –
O=C(O)CCC(=O)C(=O)O [2-oxoglutaric acid/D-glutamic acid, 2-oxoglutaric acid] | No Activity | 0.27 ± 0.010 µmol/min/mg | No Activity | 0.039 ± 0.0073 | No Activity | 0.067 ± 0.0046 | – | – | – | – | – | – | –
CCCCCCC(=O)C(=O)O [2-oxooctanoic acid] | No Activity | 0.101 ± 0.010 µmol/min/mg | 0.017 ± 0.0027 µmol/min/mg | 0.47 ± 0.012 | 0.0098 ± 0.0047 µmol/min/mg | 0.35 ± 0.0093 | – | – | – | – | – | – | –
CC(=O)C(=O)O [2-oxopropanoic acid/D-alanine, 2-oxopropanoic acid] | 0.49 ± 0.016 µmol/min/mg | 5.3 ± 0.038 µmol/min/mg | 0.0077 ± 0.0015 µmol/min/mg | 0.071 ± 0.00074 | 0.0053 ± 0.0036 µmol/min/mg | 0.044 ± 0.0034 | – | – | – | – | – | – | –
NC(=O)c1ccc[n+]([C@@H]2O[C@H](COP(=O)([O-])OP(=O)(O)OC[C@H]3O[C@@H](n4cnc5c(N)ncnc54)[C@H](O)[C@@H]3O)[C@@H](O)[C@H]2O)c1 [NAD^+] | – | – | – | – | – | – | utilized | – | – | – | – | – | –
NADP^+ | – | – | – | – | – | – | utilized | – | – | – | – | – | –
D-type amino acid dehydrogenase derived from T. lipolytica (Thermosyntropha lipolytica DSM 11003) (protein) MGEKIRVAIVGYGNIGRYALDAIKAAPDMELAGVVRRSSSLGDKPAELADVPVVGSIKELTGVKVALLCTPTRSVPEYAREILALGINTVDSYDIHGQLADLRLELDKVAKEHNAVAVISAGWDPGTDSMVRCMFEFMAPKGITYTNFGPGMSMGHSVAVKAVKGVKNALSMTIPLGTGVHRRMVYVELEPGADFAQVEKAVKTDPYFVKDETHVIQVEDVDALIDMGHGVLMERKGVSGGTHNQLLSFSMRINNPALTAQIMVASARASVKQKPGAYTMIQIPIIDYMYGDPDEIIRQLV | – | – | – | – | – | – | – | 14.8 | 77.5 | 5220 | 5.68 | 73.7 | 13000
